In brackets after ≈: the same amount, converted by molar mass.
Tests used:
Escherichia coli [1] = experiment: Antibacterial activity against Escherichia coli CCUG assessed as bacterial growth inhibition by agar diffusion assay; type: functional
Klebsiella pneumoniae [2] = experiment: Antibacterial activity against Klebsiella pneumoniae ATCC 13833 assessed as bacterial growth inhibition by agar diffusion assay; type: functional
Pseudomonas aeruginosa [3] = experiment: Antibacterial activity against Pseudomonas aeruginosa ATCC 27853 assessed as bacterial growth inhibition by agar diffusion assay; type: functional
Acinetobacter baumannii [4] = experiment: Antibacterial activity against Acinetobacter baumannii ATCC 17978 assessed as bacterial growth inhibition by agar diffusion assay; type: functional
Acinetobacter baumannii [5] = experiment: Synergistic antibacterial activity against Acinetobacter baumannii ATCC 17978 in presence of 0.5 times MIC of colistin by microdilution broth method; type: functional
Escherichia coli [6] = experiment: Synergistic antibacterial activity against Escherichia coli CCUG in presence of 0.5 times MIC of colistin by microdilution broth method; type: functional
Klebsiella pneumoniae [7] = experiment: Synergistic antibacterial activity against Klebsiella pneumoniae ATCC 13833 in presence of 0.5 times MIC of colistin by microdilution broth method; type: functional
Acinetobacter baumannii [8] = experiment: Potentiation of colistin-induced antibacterial activity against Acinetobacter baumannii ATCC 17978 assessed as fold reduction in colistin MIC by microdilution broth method relative to colistin MIC; type: functional
Escherichia coli [9] = experiment: Potentiation of colistin-induced antibacterial activity against Escherichia coli CCUG assessed as fold reduction in colistin MIC in by microdilution broth method relative to colistin MIC; type: functional
Klebsiella pneumoniae [10] = experiment: Potentiation of colistin-induced antibacterial activity against Klebsiella pneumoniae ATCC 13833 assessed as fold reduction in colistin MIC by microdilution broth method relative to colistin MIC; type: functional
Pseudomonas aeruginosa [11] = experiment: Synergistic antibacterial activity against Pseudomonas aeruginosa ATCC 27853 in presence of 0.5 times MIC of colistin by microdilution broth method; type: functional
Acinetobacter baumannii [12] = experiment: Synergistic antibacterial activity against Acinetobacter baumannii ATCC 17978 assessed as fractional inhibitory concentration index in presence of colistin by Checkerboard assay; type: functional
Pseudomonas aeruginosa [13] = experiment: Synergistic antibacterial activity against Pseudomonas aeruginosa ATCC 27853 assessed as fractional inhibitory concentration index in presence of colistin by Checkerboard assay; type: functional
Pseudomonas aeruginosa [14] = experiment: Potentiation of colistin-induced antibacterial activity against Pseudomonas aeruginosa ATCC 27853 assessed as fold reduction in colistin MIC by microdilution broth method relative to colistin MIC; type: functional
Klebsiella pneumoniae [15] = experiment: Synergistic antibacterial activity against colistin-resistant Klebsiella pneumoniae SI-004Bo clinical isolate in presence of 2 ug/ml colistin by microdilution broth method (reference value: 64 ug/ml); type: functional
Klebsiella pneumoniae [16] = experiment: Synergistic antibacterial activity against colistin-resistant Klebsiella pneumoniae SI-081R clinical isolate in presence of 2 ug/ml colistin by microdilution broth method (reference value: 256 ug/ml); type: functional
Acinetobacter baumannii [17] = experiment: Synergistic antibacterial activity against multidrug-resistant Acinetobacter baumannii N50 in presence of 2 ug/ml colistin by microdilution broth method; type: functional
HeLa = experiment: Cytotoxicity against human HeLa cells assessed as reduction in cell viability assay by CellTox-Green assay; type: cell-based
Bacillus spizizenii = experiment: Antibacterial activity against Bacillus subtilis ATCC 6633 assessed as bacterial growth inhibition by agar diffusion assay; type: functional
Enterococcus faecalis = experiment: Antibacterial activity against Enterococcus faecalis ATCC 29212 assessed as bacterial growth inhibition by agar diffusion assay; type: functional
Staphylococcus aureus = experiment: Antibacterial activity against Staphylococcus aureus ATCC 25923 assessed as bacterial growth inhibition by agar diffusion assay; type: functional
Streptococcus pyogenes = experiment: Antibacterial activity against Streptococcus pyogenes ATCC 12344 assessed as bacterial growth inhibition by agar diffusion assay; type: functional
Enterobacter cloacae [18] = experiment: Antibacterial activity against multidrug-resistant Enterobacter cloacae VA 417/02 clinical isolate assessed as bacterial growth inhibition by agar diffusion assay; type: functional
Enterobacter cloacae [19] = experiment: Antibacterial activity against multidrug-resistant Enterobacter cloacae Z19 clinical isolate assessed as bacterial growth inhibition by agar diffusion assay; type: functional
Escherichia coli [20] = experiment: Antibacterial activity against multidrug-resistant Escherichia coli Z25 clinical isolate assessed as bacterial growth inhibition by agar diffusion assay; type: functional
Pseudomonas aeruginosa [21] = experiment: Antibacterial activity against multidrug-resistant Pseudomonas aeruginosa VR-143/97 clinical isolate assessed as bacterial growth inhibition by agar diffusion assay; type: functional
Acinetobacter baumannii [22] = experiment: Antibacterial activity against Acinetobacter baumannii AC-54/97 clinical isolate assessed as bacterial growth inhibition by agar diffusion assay; type: functional

| SMILES | MIC (Escherichia coli [1]) [mg/L] | MIC (Klebsiella pneumoniae [2]) [mg/L] | MIC (Pseudomonas aeruginosa [3]) [mg/L] | MIC (Acinetobacter baumannii [4]) [mg/L] | MIC (Acinetobacter baumannii [5]) [mg/L] | MIC (Escherichia coli [6]) [mg/L] | MIC (Klebsiella pneumoniae [7]) [mg/L] | log2FC (Acinetobacter baumannii [8]) | log2FC (Escherichia coli [9]) | log2FC (Klebsiella pneumoniae [10]) | MIC (Bacillus spizizenii) [mg/L] | MIC (Enterococcus faecalis) [mg/L] | MIC (Staphylococcus aureus) [mg/L] | MIC (Streptococcus pyogenes) [mg/L] | MIC (Enterobacter cloacae [18]) [mg/L] | MIC (Enterobacter cloacae [19]) [mg/L] | MIC (Escherichia coli [20]) [mg/L] | MIC (Pseudomonas aeruginosa [21]) [mg/L] | MIC (Acinetobacter baumannii [22]) [mg/L] | other results |
| --- | --- | --- | --- | --- | --- | --- | --- | --- | --- | --- | --- | --- | --- | --- | --- | --- | --- | --- | --- | --- |
| CCCCCCc1ccc(O)cc1OCCCCCCCCCCC(=O)NCCO | > 512 | > 512 | > 512 | > 512 | 16 | 4 | 8 | 5 | 7 | 6 |  |  |  |  |  |  |  |  |  |  |
| CCCCCCc1ccc(O)cc1OCCCCCC(=O)NCCO | > 512 | > 512 | > 512 | > 512 | 8 |  |  | 6 |  |  |  |  |  |  |  |  |  |  |  |  |
| CCCCCc1cc(O)cc(OCCCCCCCCCCCC(=O)NCCO)c1 | > 512 | > 512 | > 512 | > 512 | 4 | 8 | 8 | 7 | 6 | 6 |  |  |  |  |  |  |  |  |  | MIC (Pseudomonas aeruginosa [11]): 4 mg/L; fractional inhibitory concentration index (FICI) (Acinetobacter baumannii [12]): 0.31; fractional inhibitory concentration index (FICI) (Pseudomonas aeruginosa [13]): 0.41; log2FC (Pseudomonas aeruginosa [14]): 7; MIC (Klebsiella pneumoniae [15]): > 64 mg/L; MIC (Klebsiella pneumoniae [16]): > 64 mg/L; MIC (Acinetobacter baumannii [17]): 4 mg/L; IC50 (HeLa): 18 mg/L (≈ 42.7 µM) |
| CCCCCCc1ccc(OCCCCCCCC(=O)NCCO)cc1O | > 512 | > 512 | > 512 | > 512 | 16 | 8 | 4 | 5 | 6 | 7 |  |  |  |  |  |  |  |  |  |  |
| CCOC(=O)c1c(O)nc2c(C)cccc2c1O | > 512 | > 512 | > 512 | > 512 | 64 | 64 | 16 | 3 | 3 | 5 |  |  |  |  |  |  |  |  |  |  |
| CCCCCc1cc(O)cc(OCCCCCCCCCCC(=O)NC(CO)CO)c1 | > 512 | > 512 | > 512 | > 512 | 4 | 8 | 8 | 7 | 6 | 6 |  |  |  |  |  |  |  |  |  |  |
| CCOC(=O)c1cn(CC)c2cc(N)c(F)cc2c1=O | 32 (≈ 115 µM) | 128 (≈ 460 µM) | > 256 | 256 (≈ 920 µM) |  |  |  |  |  |  | 32 (≈ 115 µM) | 256 (≈ 920 µM) | 256 (≈ 920 µM) | 64 (≈ 230 µM) | > 256 | > 256 | > 256 | > 256 | > 256 |  |
| CC(C)(C)n1cc(C(=O)O)c(=O)c2cc(F)c(-c3ccc(F)cc3F)cc21 | 16 (≈ 42.6 µM) | 4 (≈ 10.7 µM) | 64 (≈ 171 µM) | 8 (≈ 21.3 µM) |  |  |  |  |  |  | ≤ 0.12 | 2 (≈ 5.33 µM) | 2 (≈ 5.33 µM) | 1 (≈ 2.66 µM) | 4 (≈ 10.7 µM) | > 256 | > 256 | > 256 | > 256 |  |
| O=C(O)c1cn(C2CC2)c2cc(Br)c(F)cc2c1=O | 0.25 (≈ 0.767 µM) | ≤ 0.12 | 8 (≈ 24.5 µM) | 0.5 (≈ 1.53 µM) |  |  |  |  |  |  | ≤ 0.12 | 4 (≈ 12.3 µM) | 4 (≈ 12.3 µM) | 4 (≈ 12.3 µM) | 0.25 (≈ 0.767 µM) | > 256 | > 256 | 256 (≈ 785 µM) | 256 (≈ 785 µM) |  |
| CC(C)c1ccc2c(c1)c(O)c(C(C)C)c(=O)n2CC(C)(C)C | > 512 | > 512 | > 512 | > 512 | 32 | 32 | 64 | 4 | 4 | 3 |  |  |  |  |  |  |  |  |  |  |
